# Assays:
# hTGR5 = target: T1, hTGR5 (Homo sapiens, UniProt Q8TDU6); experiment: human TGR5 CRE-luciferase assay in co-transfected 293T cells; type: cell-based
# T1 construct: expressed in transfected cells; host or cells: 293T cells, transient transfection with pTGR5 (gift from Prof. Johan Auwerx)
# T1 sequence (Q8TDU6 1-330): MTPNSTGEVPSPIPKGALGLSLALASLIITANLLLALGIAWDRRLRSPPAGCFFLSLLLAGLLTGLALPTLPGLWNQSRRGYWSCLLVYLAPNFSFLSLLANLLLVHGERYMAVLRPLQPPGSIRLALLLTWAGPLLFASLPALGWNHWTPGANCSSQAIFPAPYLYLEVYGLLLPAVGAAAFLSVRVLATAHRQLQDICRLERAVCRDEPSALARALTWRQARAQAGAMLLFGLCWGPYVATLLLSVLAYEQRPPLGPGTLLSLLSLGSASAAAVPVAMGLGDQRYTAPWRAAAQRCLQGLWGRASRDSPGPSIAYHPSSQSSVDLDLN
# Description: For human TGR5 luciferase (luc) assay, 293T cells were co-transfected with pCRE-luc, pTGR5 (kind gift from Prof. Johan Auwerx, Ecole Polytechnique Fédérale de Lausanne, Lausanne, Switzerland) and pRenilla (Promega, USA). WB403 was added 5 h later. Cells were harvested after 16 h and subjected to luciferase analysis on Lumistar Optima chemiluminescent detector (BMG labtech, Germany). For cAMP testing, 293T cells transiently transfected with pTGR5 or pGPR119 (GeneCopoeia, USA) were washed by FBS-free DMEM, and stimulated with WB403 in FBS-free DMEM containing 3-isobutyl-1-methyl-xanthine (IBMX, Sigma). Cell lysates were collected 30 min later and used for cAMP ELISA assay. FLIPR Calcium 5 assay kit (Molecular Devices, USA) was used for calcium mobilization assay. 293-GPR40 stable cells (kindly provided by Prof. Naiming Zhou of Zhejiang University, Hanzhou, China) or 293 cells transient transfected with GPR120 were seeded at 50,000 cells per well in black-walled clear-bottomed 96-well plates (Costar). An equal volume of loading buffer containing Fluo 4-AM was added the following day and cells were incubated for 1 h before stimulated with compounds. Increase of the intracellular Ca^2+ concentration was monitored by Flexstation 3 system (Molecular Devices, USA).
# Fig 1 WB403 activated TGR5 and promoted active GLP-1 secretion. (A) WB403 stimulated hTGR5 in CRE-luciferase report system at the concentration range of 1–20 μmol/l. (B) WB403 stimulated hTGR5 specific cAMP accumulation at the concentration range of 1–50 μmol/l. n = 3. **p<0.01, ***p<0.001 vs. DMSO (+TGR5) group. (C) The hTGR5 targeted CRE-luciferase activity of WB403 and ZY403. […] (D) Effect of WB403 and ZY403 on gallbladders of mice. Normal mice were fasted overnight and treated with compounds (200 mg/kg) or vehicle (DMSO) by ip injection. Gallbladders (GB) were removed 30 min later and volumes measured then normalized to body weight (B.W.). n = 10. **p<0.01 vs. vehicle group. (E) Structure of WB403 and ZY403. WB403 promoted GLP-1 secretion in NCI-H716 cells (F), primary enterocytes (G), and MIN6 cells (H). n = 3. *p<0.05, **p<0.01, ***p<0.001 vs. vehicle group. (I) WB403 promoted GLP-1 in ICR mice. n = 5. **p<0.01 vs. vehicle group. Values represent mean ± SEM.
# primary enterocytes = experiment: active GLP-1 secretion in primary enterocytes; type: cell-based; conditions: Fig 1G
# Description: (§1) Endocrine differentiation was induced by seeding NCI-H716 cells in plates coated with Matrigel (Becton Dickinson). Cells were washed with RPMI-1640 medium without FBS and incubated in the same medium containing indicated compounds at 10 μmol/l. The condition medium was collected after 30 min. GLP-1 secretion in MIN6 or primary enterocytes was conducted similarly. To isolate primary enterocytes, ileum or colon was cut into 2 cm length, rinsed by PBS (pH7.2∼7.4) before dispersed in 10 mmol/l EDTA/PBS (pH7.4) for 15 min at room temperature, followed by pipetting up and down. Enterocytes were collected by filtration through a 70 μm cell strainer. To study the effect of WB403 on GLP-1 secretion in vivo, mice in group of three were fasted overnight and orally received 0, 50, 100 mg/kg of WB403 dispersed in 0.5% CMC with a DPP-4 inhibitor (5 mg/kg). There were 5 animals in each group. 2 g/kg glucose was administrated 30 min later and blood was collected 10 min after glucose challenge.
# (§2) The GLP-1 (active) ELISA kit was purchased from Millipore, and insulin ELISA kit was from Mercodia. For quantitative determination of cAMP, a competitive enzyme immunoassay kit from R&D system was used. All immunoassays were performed according to manufacturers’ instructions.
# MIN6 cells = experiment: active GLP-1 secretion in MIN6 cells; type: cell-based, mouse; conditions: Fig 1H
# Description: as §1, §2
# ICR mice [1] = experiment: GLP-1 secretion in vivo in ICR mice; conditions: oral 50, 100 mg/kg with DPP-4 inhibitor 5 mg/kg; blood 10 min after 2 g/kg glucose; n = 5
# Description: as §1, §2
# ICR mice [2] = experiment: 7-day acute toxicity test in ICR mice; conditions: 6000 mg/kg group after 7-day acute toxicity test
smiles,measurement,setting,value
"CCc1cc(-c2nc(C)c(COCc3ccc(Br)cc3)s2)ccn1 [WB403, 4-(5-((4-bromobenzyloxy)-methyl)-4-methylthiazol-2-yl)-2-ethylpyridine]",stimulation of luciferase reaction through TGR5,"hTGR5; 1–20 μmol/l, Fig 1A",dose-dependently stimulate
same,EC50,"hTGR5; CRE-luciferase, 293T cells, read-out: TGR5 EC50",5.5 µM
same,luciferase activity in control 293T cells,hTGR5; control 293T cells transfected with an empty plasmid,no stimulation
same,TGR5 luciferase activity in primary screen (fold increase compared to DMSO control),"hTGR5; screen of 100 compounds, S1 Fig",relatively lower luciferase activity
same,GLP-1 stimulation in primary enterocytes,primary enterocytes,outstanding effect in GLP-1 stimulation
same,GLP-1 stimulation in MIN6 cells,MIN6 cells,GLP-1 stimulation effect of WB403 was confirmed
same,GLP-1 concentration in serum,ICR mice [1],significantly increased
same,signs of toxicity in tissue sections (H&E),ICR mice [2],did not show obvious signs of toxicity
